Positions of bridges follow the written chain, without caps; N, C: chain ends. Residues, ends and D or L forms follow the SMILES beside them.
How the values were obtained:
[1] = target: T1, CD40L binding to Mac-1 I-domain (Homo sapiens, UniProt P29965); test: Solid phase binding assay: blocking of CD40L binding to immobilized Mac-1 I-domain by peptides; settings: peptides 50 μM
T1 construct: inserting the coding DNA for amino acids E^108 to L^261 in pHOG-21; His (N); trimerization domain (N); made in house
T1 sequence (P29965 108-261): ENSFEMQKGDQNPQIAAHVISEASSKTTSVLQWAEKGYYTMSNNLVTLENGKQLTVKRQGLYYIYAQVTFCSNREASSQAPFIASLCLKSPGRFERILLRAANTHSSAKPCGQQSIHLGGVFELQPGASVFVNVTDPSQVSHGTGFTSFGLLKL
Method: Solid phase binding assay. Recombinant CD40L was incubated with immobilized Mac-1 I-domain in the presence or absence of blocking peptides. Binding of sCD40L was detected by addition of anti-cmyc-HRP (Invitrogen), TMB-substrate (Pierce), and colorimetric reaction. Alternatively, CD40L (Provitro) was immobilized, and binding of the recombinant Mac-1 I-domain was quantified by addition of anti-His-Biotin (Qiagen), and HRP-coupled streptavidin (Pierce). For the binding to immobilized peptides, CD40L was biotinylated with the Micro Biotinylation Kit (Sigma). A mixture of equal molarities of all peptides served as the positive control in this assay.
The recombinant Mac-1 I-domain was immobilized in 96-well plates (Nunc) in PBS at 4° C. overnight. After blocking in 2% BSA/PBS and subsequent washing with PBS, recombinant CD40L was added to the wells in the indicated concentrations and incubated for 2 hours at 37° C. Effect of the peptides M1-M8 was assessed by incubating CD40L (10 μg/ml) in the presence of peptides (50 μM). After removing of unbound CD40L by washing with 0.1% Tween-20/PBS, anti-c-myc-HRP (Invitrogen) was added and incubated for 2 hours at room temperature. Binding was quantified by addition of TMB-substrate (Pierce), colorimetric reaction at 450 nm. Alternatively, CD40L without a His-tag (Provitro) was immobilized and blocked as described above. Binding of the recombinant Mac-1 I-domain was quantified by addition of anti-His-Biotin monoclonal antibody (Qiagen), HRP-coupled streptavidin (Pierce) and colorimetric reaction at 450 nm. For the specific binding of the Mac-1 I-domain BSA-coated wells were subtracted from the CD40L-coated. Kd was estimated using a one-site binding hyperbola nonlinear regression model with the Software Prism (Graphpad). For quantification of the binding of CD40L to peptides, peptides were immobilized in 96-well plates overnight at 4° C. in 50 mM sodium carbonate, pH 10.6. CD40L was biotinylated using the Micro-Biotinylation-Kit (Sigma) following the manufacturer's instructions and detected by HRP-coupled streptavidin (Pierce) and colorimetric reaction. A mixture of equal molarities of all peptides served as positive control. Absorbance on BSA-coated wells served as negative control and was subtracted.

[2] = test system: CD40L-transfected murine fibroblasts; test: Flow cytometry: binding of FITC-cM7 to CD40L- or mock-transfected murine fibroblasts; type: cell-based
Method: Flow cytometric analysis, platelet activation assays, and quantification of leukocyte-platelet aggregates, were performed as previously described (Zirlik et al., 2007). Binding of cM7 to CD40L-expressing murine fibroblasts was determined by quantification of FITC-coupled cM7. Binding of CD40L to Mac-1 expressing CHO-cells or human leukocytes was performed by incubation with CD40L (10 μg/ml) and subsequent detection with anti-PentaHis antibody (Qiagen).
Flow cytometric analyses, as well as platelet activation assays and quantification of leukocyte-platelet aggregates were performed as previously described (Quezada et al., Ann. Rev. Immunol. (2004), pp 307-328). Briefly, murine blood samples were taken by intracardiac puncture. Red cells were lyzed in 155 mM NH4Cl, 5.7 mM K2HPO4, 0.1 mM EDTA, pH 7.3. […] Antibodies for epitope specific fluorescence-activated cell sorting (FACS Calibur, BD) included anti-CD11b, anti-CD115, anti-Gr-1, anti-CD4, anti-CD8, anti-CD20, anti-CD41, anti-CD62P, anti-CD54, anti-CD102, and anti-CD106 (all from Ebioscience). Binding of cM7 to CD40L- or mock-transfected murine fibroblasts was determined by incubation of FITC-cM7 at the indicated concentrations with cells for 30 min at 37° C. and subsequent quantification of the fluorescence in the FL-1 channel. […]

[3] = test system: peritoneal macrophages; test: Apoptosis and necrosis of thioglycollate-recruited peritoneal macrophages in vivo (annexin V, propidium iodide); settings: intraperitoneal injection, after 4 hours
Method: (§1) (FIG. 6A, FIG. 6B) Macrophages recruited to the peritoneal cavity by thioglycollate where challenged by intraperitoneal injections of either cM7, scM7 or the blocking anti-Mac-1 antibody M1/70. […] (FIG. 4C, FIG. 4D) In vitro cultivated human umbilical vein endothelial cells (HUVECs) were incubated with cM7, scM7 or a combination of CD40L or a blocking anti-CD40 antibody. […] Data are presented as mean±SEM of at least 3 independent experiments.

[4] = test system: C57BL/6J mice; test: In vivo thrombosis model (ferrichloride injury of mesenteric arteriole)
Method: (§2) Potential side effects were checked in an in vivo thrombosis model. 3-4 weeks old C57BL/6J mice received an intraperitoneal injection of either sterile saline (100 μl), the peptides cM7, scM7, or the indicated antibodies. A mesenteric arteriole was chosen and injured with ferrichloride. Platelets were stained by retroorbital injection of rhodamine […] and visualized through an intravital microscope (AxioScope Vario, Carl Zeiss). Vessel occlusion time and thrombus embolization rate was analyzed. Tail bleeding time was determined as previously reported (Andre et al., Loc. Cit.).

[5] = test system: C57BL/6J mice; test: Tail bleeding time; settings: mouse, in vivo
Method: as §2

[6] = test system: TNFα-challenged mice; settings: mouse, in vivo
Method: Mice received an intraperitoneal injection 5 hours before surgery of 200 ng of murine TNFα (R&D systems) and 100 μg of peptides dissolved in sterile saline 5 hours before surgery. Mice were anesthetized with an intraperitoneal injection of ketamine hydrochloride (Essex) and xylazin (Bayer) at a dose at 187.5 mg/kg of body weight and 62.5 mg/kg of body weight, respectively. The cremaster muscle was exteriorized as described previously (Iezzi et al., PNAS (2009), pp 876-881). For some experiments a catheter was placed in the jugular vein and peptides were administered during microscopy. The cremaster was superfused with thermo-controlled (36° C.) saline. Mice were placed on a heating pad to maintain body temperature. Videos were taken with an intravital microscope (AxioScope Vario, Carl Zeiss) fitted with a saline immersion objective (WPlan-APOCHROMAT 20x/1,0DIC IR, Carl Zeiss) a high sensitivity camera system (AxioCam MRm, Carl Zeiss) for 30 seconds each. Rolling leukocyte flux was defined as the number of leukocytes moving at a velocity less than erythrocytes. Leukocyte rolling velocity was measured by the average time required for leukocytes to roll over a defined length of the venule at each time point. Adherent leukocytes were defined as cells that remained stationary for at least 30 s. Rolling leukocyte flux, adhering flux were quantified by a blinded investigator.

[7] = test system: human umbilical vein endothelial cells (HUVECs); test: Cytotoxicity and apoptosis in cultivated HUVECs (caspase 3/7 activity, LDH release); type: cell-based
Method: as §1

[8] = test system: LDLr−/− mice; test: Atherogenesis study, high-cholesterol diet 20 weeks; type: in vivo
Method: Atherogenesis study. Eight-week-old male LDL-receptor-deficient (LDLr^−/−) mice (Jackson Laboratories) consuming a high-cholesterol diet (HCD) were treated with intraperitoneal injections of the peptides cM7, scM7 (Peptide Specialty Laboratory) in a dose of 100 μg, or sterile saline three times a week. After 20 weeks blood samples were taken for flow cytometric analysis of leukocyte subpopulations, cholesterol and triglyceride plasma levels, as well as for the determination of plasma cytokines and chemokines. Blood pressure was determined by a non-invasive blood pressure measurement (NIBP, Harvard Apparatus). Mice were euthanized, and aortic roots and arches were frozen in OCT (OCT compound; Tissue-Tek). Thoracic and abdominal aortas were fixed in 10% buffered formalin. Serial cryostat sections (6 μm) of mouse aortic tissues were fixed in acetone, and air-dried. Nonspecific binding was blocked with 5% species-appropriate normal serum (Vector Laboratories). Sections were then incubated with primary antibodies diluted in phosphate-buffered saline, supplemented with 5% species-appropriate normal serum. Incubation with secondary antibodies was followed by avidin-biotin complex (ABC, Vector Laboratories). Antibody binding was visualized with 3-amino-9-ethylcarbazole (AEC; Dako), followed by counterstaining with Gill's hematoxylin solution (Sigma-Aldrich). Control stainings included staining with the respective IgG isotypes (Pharmingen, Dako). Antibodies used were rat anti-mouse Mac-3 for macrophage specific staining, anti α-actin for smooth muscle cell specific staining (Dako). For the visualization of Type I Collagen, Formalin-fixed frozen sections were incubated for 4 hours in a freshly prepared 0.1% solution of picrosirius red (Polysciences) in saturated aqueous picric acid. After rinsing in 0.01 N HCl and distilled water, sections were dehydrated in 70% ethanol and mounted in Permount (Vector Laboratories). Picrosirius red staining was analyzed by polarization microscopy. As the color of collagen fibers assessed in the picrosirius red staining depends on the thickness of collagen fibers and changes from green (thin fibers) to yellow, orange, and red (thick fibers), color distribution in stained collagen sections was quantified. Deposition of lipids was determined by oil red O staining after formalin fixation in aortic sections or in en face preparations of the abdominal aorta. To quantify the composition of the aortic lesions, sections of the aortic tissue were analyzed microscopically in all mice. Within the aortic root, lesion areas were analyzed in cross-sections obtained at the level of all 3 leaflets of the aortic valve, immediately proximal to the right coronary artery ostium. The total aortic wall area, lesion area in the aortic root, and the percentage of area stained for macrophages, lipids, SMCs, or collagen were determined via computer-assisted image quantification (ImagePro, Media Cybernetics).

## FQVNNFEALKT (therapeutically active peptide) [Peptide M5]
[1]
  blocking of CD40L / Mac-1 I-domain binding: emerged as potential candidate inhibitors

## DAFRSEKSRQELNTI (therapeutically active peptide) [Peptide M4]
[1]
  blocking of CD40L / Mac-1 I-domain binding: emerged as potential candidate inhibitors

## C-EQLKKSKTL-C (CEQLKKSKTLC; bridge N-C; also: cyclised through the flanking Cys, bond type not given here) [FITC-labeled cM7]
[2]
  binding to murine fibroblasts over-expressing CD40L: concentration-dependently bound to murine fibroblasts over-expressing CD40L
[2]; control cells
  binding to mock-transfected fibroblasts: but not to respective mock-transfected control cells

## CC(C)C[C@@H]1NC(=O)[C@H](CCC(N)=O)NC(=O)[C@H](CCC(=O)O)NC(=O)[C@@H](N)CSSC[C@@H](C(=O)O)NC(=O)[C@H](CC(C)C)NC(=O)[C@H]([C@@H](C)O)NC(=O)[C@H](CCCCN)NC(=O)[C@H](CO)NC(=O)[C@H](CCCCN)NC(=O)[C@H](CCCCN)NC1=O [cM7] (H-CEQLKKSKTLC-OH; disulfide 1-11 (inferred); N-terminus and C-terminus assumed)
[3]
  apoptotic or necrotic cells in vivo (annexin V binding, propidium iodide loading): did not cause an increase of apoptotic or necrotic cells in vivo
[4]; model of arterial thrombosis
  effect on vessel occlusion time: did not prolong vessel occlusion time
[4]; mouse, in vivo
  effect on thromboembolization rate: only caused a slight increase in thromboembolization rate
[5]
  effect on bleeding time: did not affect bleeding time
[6]
  Heart rate: 628 ± 63 bpm
  Leukocytes: 11.9 ± 2.3 ×1000/μl
  Platelets: 552 ± 174 ×1000/μl
  Systolic blood pressure: 97.6 ± 6.5 mmHg
[7]; CD40L primed HUVECs
  apoptosis of endothelial cells, LDH-release: slightly increased in CD40L primed HUVECs
[7]; HUVECs, 24 hours
  cellular cytotoxicity, caspase 3/7-activity: did not induce cellular cytotoxicity
[8]; AF
  Leukocytes: 4.54 ± 1.28 ×1000/μl
  Platelets: 486 ± 198 ×1000/μl
[8]; AF: after feeding
  Weight: 35.7 ± 3.8 g
[8]; BF
  Leukocytes: 11.2 ± 3.1 ×1000/μl
  Platelets: 529 ± 53 ×1000/μl
[8]; BF: before feeding
  Weight: 23.4 ± 2.3 g
[8]; long-term treatment
  immunologic characteristics (T cells, B cells, cytokines): Any changes in immunologic characteristics were not observed

## KFGDPLGYEDVIPEADR (therapeutically active peptide) [Peptide M3]
[1]
  blocking of CD40L / Mac-1 I-domain binding: emerged as potential candidate inhibitors
